“And” between values parts separate entries of the source, which are not always exact repeats. Identical values can stand only once.
Tested on: HEK293T NF-kB-Luc cytotoxicity, resazurin fluorescence, 14 h;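 active = compounds toxic to HEK293 cells with IC50 at or below 20 µM; inactive = the rest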
Experiment: HEK293T cell viability loss, resazurin readout – resazurin fluorescence, cytotoxicity control for NF-kB activator project, SAR follow-up (AID 493251)

CCCC(=O)NC(c1ccc(OC)cc1)c1ccc2cccnc2c1O (stereo unspecified)
IC50: 15.8 µM and > 33.2 µM (inactive)

Reference: PubChem BioAssay AID493251 (Sanford-Burnham Center for Chemical Genomics, 2011)
